Measured values as given in ChEMBL document CHEMBL1201862, “PubChem BioAssay data set” (2004).
Active and inactive are the calls of the source.

Columns and labels:
[1] = molecular target: T1, Mannose-6-phosphate isomerase (Homo sapiens, UniProt P34949); test: human PMI inhibitors, high substrate, primary screen, biochemical, fluorescence intensity, high mannose 6-phosphate (AID 1220)
T1 sequence (P34949 whole entry): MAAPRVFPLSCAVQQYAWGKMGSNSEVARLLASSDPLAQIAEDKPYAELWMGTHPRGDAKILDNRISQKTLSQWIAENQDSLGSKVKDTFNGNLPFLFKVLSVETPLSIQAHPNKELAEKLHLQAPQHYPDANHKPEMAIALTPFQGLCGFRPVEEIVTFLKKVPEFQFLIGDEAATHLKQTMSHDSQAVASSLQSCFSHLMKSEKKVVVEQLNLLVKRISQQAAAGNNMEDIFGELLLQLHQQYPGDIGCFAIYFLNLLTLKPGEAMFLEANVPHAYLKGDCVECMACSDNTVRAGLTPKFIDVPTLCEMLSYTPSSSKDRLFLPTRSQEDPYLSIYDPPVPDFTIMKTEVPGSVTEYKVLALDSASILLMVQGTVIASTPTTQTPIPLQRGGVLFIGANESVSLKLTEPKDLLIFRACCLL

[2] = molecular target: T2, Microphthalmia-associated transcription factor (Homo sapiens, UniProt O75030); test: TRPM1 promoter luciferase signal decrease, dose response, MITF inhibitor project, cell-based, SK-MEL-5, cherry-picked, set 3 (AID 493073); assay type: functional
T2 sequence (O75030 whole entry): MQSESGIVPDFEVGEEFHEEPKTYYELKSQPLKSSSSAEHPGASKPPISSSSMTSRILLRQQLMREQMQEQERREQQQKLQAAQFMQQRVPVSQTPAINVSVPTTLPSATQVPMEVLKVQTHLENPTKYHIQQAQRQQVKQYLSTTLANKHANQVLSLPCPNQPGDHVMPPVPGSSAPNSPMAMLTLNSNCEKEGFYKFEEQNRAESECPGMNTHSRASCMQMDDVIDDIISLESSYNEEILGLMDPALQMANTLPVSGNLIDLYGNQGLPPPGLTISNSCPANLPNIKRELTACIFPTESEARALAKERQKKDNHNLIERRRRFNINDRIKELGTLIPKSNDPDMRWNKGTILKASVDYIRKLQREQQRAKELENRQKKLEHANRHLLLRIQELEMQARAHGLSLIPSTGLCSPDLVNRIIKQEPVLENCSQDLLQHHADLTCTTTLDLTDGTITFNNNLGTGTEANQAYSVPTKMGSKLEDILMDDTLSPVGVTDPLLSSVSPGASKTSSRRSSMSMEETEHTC

[3] = molecular target: T3, Ubiquitin-conjugating enzyme E2 N (Homo sapiens, UniProt P61088); assay type: functional;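 further: Dose-response confirmation in a TR-FRET assay detecting UBC13-driven polyubiquitin chain formation, inhibition measured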
T3 sequence (P61088 whole entry): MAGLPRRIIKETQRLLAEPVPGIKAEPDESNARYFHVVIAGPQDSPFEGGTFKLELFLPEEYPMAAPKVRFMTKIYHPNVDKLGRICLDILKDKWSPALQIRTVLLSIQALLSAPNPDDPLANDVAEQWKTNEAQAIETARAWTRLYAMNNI

[4] = molecular target: Dual specificity tyrosine-phosphorylation-regulated kinase 1B (Homo sapiens, UniProt Q9Y463); test: Navigating the Kinome. Panel member name: DYRK1B; assay type: functional
[5] = molecular target: Macrophage-stimulating protein receptor (Homo sapiens, UniProt Q04912); test: Navigating the Kinome. Panel member name: MST1R; assay type: functional
[6] = molecular target: Dual specificity tyrosine-phosphorylation-regulated kinase 1A (Homo sapiens, UniProt Q13627); assay type: functional;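 further: measured against DYRK1A as one member of a broad kinome profiling panel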
[7] = molecular target: Megakaryocyte-associated tyrosine-protein kinase (Homo sapiens, UniProt P42679); assay type: functional;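 further: affinity measured as one member of a kinase panel (Navigating the Kinome) against MATK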
Sequence of Megakaryocyte-associated tyrosine-protein kinase (P42679 whole entry): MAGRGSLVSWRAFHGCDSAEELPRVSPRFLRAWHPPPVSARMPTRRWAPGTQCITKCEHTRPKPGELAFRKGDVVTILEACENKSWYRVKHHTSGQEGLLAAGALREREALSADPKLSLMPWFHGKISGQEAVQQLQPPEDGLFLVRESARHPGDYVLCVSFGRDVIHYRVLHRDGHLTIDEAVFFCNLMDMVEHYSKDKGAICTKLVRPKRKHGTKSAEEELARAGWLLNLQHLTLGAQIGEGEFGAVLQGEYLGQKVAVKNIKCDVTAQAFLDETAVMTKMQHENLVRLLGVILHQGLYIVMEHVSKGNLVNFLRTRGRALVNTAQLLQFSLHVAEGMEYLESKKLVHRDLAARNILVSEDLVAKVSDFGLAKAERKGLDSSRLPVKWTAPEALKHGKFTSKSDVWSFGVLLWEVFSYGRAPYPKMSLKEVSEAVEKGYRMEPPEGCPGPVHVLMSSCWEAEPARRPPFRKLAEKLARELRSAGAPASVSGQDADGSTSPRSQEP

[8] = molecular target: Tyrosine-protein kinase Lck (Homo sapiens, UniProt P06239); assay type: functional;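 further: lck was assayed as one member of a kinase panel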
[9] = molecular target: MAP kinase-activated protein kinase 3 (Homo sapiens, UniProt Q16644); assay type: functional;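 further: value comes from a kinome-wide profiling panel in which MAPKAPK3 is one of the panel members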
Focal adhesion kinase 1 = Focal adhesion kinase 1 (Homo sapiens, UniProt Q05397); assay type: functional;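 further: measured as one member of a kinome panel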
Sequence of Focal adhesion kinase 1 (Q05397 whole entry): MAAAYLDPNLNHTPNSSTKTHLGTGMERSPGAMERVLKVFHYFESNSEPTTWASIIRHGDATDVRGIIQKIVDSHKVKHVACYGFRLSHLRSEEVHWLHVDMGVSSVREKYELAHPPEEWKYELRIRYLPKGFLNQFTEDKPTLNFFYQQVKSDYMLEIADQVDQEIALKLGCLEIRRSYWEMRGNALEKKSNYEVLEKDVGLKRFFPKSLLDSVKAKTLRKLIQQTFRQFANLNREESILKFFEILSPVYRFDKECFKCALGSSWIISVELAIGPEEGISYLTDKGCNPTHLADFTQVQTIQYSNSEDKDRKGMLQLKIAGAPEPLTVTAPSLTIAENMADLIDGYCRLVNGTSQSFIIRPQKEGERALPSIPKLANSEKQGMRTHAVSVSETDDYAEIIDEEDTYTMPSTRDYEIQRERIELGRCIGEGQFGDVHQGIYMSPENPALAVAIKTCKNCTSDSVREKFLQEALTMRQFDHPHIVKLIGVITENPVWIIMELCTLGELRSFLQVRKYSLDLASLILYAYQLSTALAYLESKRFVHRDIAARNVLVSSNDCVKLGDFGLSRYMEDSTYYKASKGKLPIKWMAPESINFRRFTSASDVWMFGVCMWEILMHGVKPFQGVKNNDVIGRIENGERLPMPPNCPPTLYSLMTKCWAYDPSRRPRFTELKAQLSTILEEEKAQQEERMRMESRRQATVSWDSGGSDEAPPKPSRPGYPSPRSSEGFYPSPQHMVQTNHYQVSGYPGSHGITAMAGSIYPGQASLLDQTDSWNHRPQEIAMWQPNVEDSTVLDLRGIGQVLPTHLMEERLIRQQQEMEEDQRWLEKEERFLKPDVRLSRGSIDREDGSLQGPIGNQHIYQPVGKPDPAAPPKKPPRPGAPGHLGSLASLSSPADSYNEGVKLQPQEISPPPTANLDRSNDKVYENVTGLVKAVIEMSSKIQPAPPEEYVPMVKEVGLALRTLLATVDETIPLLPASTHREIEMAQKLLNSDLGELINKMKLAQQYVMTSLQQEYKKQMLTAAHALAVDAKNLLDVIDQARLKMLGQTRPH

[10] = molecular target: Interleukin-1 receptor-associated kinase 1 (Homo sapiens, UniProt P51617); assay type: functional;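 further: IRAK1 tested as one member of a kinome panel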
[11] = molecular target: Serine/threonine-protein kinase DCLK1 (Homo sapiens, UniProt O15075); assay type: functional;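 further: affinity for DCLK1 (listed as DCAMKL1) measured as one member of a kinome-wide kinase profiling panel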
[12] = molecular target: Serine/threonine-protein kinase Nek2 (Homo sapiens, UniProt P51955); assay type: functional
Sequence of Serine/threonine-protein kinase Nek2 (P51955 whole entry): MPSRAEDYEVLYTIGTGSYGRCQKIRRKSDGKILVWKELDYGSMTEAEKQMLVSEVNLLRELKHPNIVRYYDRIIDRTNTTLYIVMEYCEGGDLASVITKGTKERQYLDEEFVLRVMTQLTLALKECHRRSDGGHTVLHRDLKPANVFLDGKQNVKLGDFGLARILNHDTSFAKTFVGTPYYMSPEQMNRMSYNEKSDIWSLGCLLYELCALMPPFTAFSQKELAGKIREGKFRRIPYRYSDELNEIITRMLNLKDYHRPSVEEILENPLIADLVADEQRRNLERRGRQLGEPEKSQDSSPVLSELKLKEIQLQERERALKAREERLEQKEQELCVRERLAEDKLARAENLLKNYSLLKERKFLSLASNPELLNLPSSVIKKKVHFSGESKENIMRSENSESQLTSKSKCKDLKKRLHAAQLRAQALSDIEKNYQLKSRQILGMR

[13] = molecular target: Serine/threonine-protein kinase PLK1 (Homo sapiens, UniProt P53350); assay type: functional;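 further: PLK1 measured as one member of a kinome-wide profiling panel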
Sequence of Serine/threonine-protein kinase PLK1 (P53350 whole entry): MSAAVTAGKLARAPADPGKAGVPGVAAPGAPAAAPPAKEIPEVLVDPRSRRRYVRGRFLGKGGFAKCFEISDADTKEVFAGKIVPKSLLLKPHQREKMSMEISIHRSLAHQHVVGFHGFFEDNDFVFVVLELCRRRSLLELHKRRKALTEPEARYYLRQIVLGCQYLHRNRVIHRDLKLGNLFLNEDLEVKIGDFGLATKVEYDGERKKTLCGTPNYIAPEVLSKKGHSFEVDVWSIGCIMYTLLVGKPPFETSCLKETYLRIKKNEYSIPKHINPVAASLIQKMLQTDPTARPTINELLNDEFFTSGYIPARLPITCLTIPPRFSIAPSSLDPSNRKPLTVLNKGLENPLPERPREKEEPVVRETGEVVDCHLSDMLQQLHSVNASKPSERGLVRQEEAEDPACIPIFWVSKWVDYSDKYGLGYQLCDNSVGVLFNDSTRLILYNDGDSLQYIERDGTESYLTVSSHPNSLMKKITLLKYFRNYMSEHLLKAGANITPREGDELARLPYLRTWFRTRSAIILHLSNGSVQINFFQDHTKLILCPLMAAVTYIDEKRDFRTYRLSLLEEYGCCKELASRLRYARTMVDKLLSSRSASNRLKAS

[14] = molecular target: Serine/threonine-protein kinase MRCK alpha (Homo sapiens, UniProt Q5VT25); assay type: functional
Sequence of Serine/threonine-protein kinase MRCK alpha (Q5VT25 whole entry): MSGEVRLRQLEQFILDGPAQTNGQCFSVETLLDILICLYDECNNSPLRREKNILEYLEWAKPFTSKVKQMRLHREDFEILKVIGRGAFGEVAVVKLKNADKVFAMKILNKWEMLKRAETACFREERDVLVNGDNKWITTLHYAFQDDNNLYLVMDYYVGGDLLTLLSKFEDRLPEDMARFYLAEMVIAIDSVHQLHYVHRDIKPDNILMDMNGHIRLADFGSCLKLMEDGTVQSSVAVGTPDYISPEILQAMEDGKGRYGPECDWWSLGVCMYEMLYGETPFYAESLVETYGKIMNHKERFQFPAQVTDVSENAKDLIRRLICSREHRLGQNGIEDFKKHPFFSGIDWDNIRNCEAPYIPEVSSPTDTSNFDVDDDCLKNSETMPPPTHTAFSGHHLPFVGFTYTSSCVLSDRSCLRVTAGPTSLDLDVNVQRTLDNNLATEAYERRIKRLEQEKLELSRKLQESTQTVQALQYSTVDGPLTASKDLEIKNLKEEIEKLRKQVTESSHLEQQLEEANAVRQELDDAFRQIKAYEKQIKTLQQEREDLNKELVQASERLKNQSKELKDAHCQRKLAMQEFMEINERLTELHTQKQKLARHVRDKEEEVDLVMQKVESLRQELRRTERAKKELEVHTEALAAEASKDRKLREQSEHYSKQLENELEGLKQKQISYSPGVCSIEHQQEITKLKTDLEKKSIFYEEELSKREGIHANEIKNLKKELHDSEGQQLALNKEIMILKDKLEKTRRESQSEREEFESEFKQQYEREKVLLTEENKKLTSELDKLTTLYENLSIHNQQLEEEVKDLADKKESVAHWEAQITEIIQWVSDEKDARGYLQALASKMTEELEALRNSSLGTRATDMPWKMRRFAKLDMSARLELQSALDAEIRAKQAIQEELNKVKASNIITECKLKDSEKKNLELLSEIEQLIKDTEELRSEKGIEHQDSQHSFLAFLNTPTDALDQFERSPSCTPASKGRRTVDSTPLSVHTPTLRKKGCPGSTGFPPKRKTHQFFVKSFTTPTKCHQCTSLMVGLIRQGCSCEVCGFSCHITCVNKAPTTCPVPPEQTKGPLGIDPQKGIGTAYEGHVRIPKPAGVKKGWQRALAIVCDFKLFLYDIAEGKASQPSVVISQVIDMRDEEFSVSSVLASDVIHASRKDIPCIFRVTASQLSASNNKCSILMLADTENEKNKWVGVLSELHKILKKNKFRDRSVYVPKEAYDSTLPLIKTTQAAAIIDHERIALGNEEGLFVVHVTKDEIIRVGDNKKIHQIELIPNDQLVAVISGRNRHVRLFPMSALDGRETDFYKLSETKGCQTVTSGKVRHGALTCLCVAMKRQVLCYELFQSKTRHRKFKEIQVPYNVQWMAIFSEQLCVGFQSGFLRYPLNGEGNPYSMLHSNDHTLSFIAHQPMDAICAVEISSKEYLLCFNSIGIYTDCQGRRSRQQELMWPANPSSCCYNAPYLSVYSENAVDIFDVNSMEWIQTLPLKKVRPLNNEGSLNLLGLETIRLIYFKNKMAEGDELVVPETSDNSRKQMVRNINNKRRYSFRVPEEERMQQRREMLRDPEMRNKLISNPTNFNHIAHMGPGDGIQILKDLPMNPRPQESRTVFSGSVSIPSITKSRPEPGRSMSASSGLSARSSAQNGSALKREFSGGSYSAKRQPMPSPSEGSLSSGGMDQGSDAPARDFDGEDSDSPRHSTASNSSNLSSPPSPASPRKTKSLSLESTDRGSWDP

[15] = molecular target: Tyrosine-protein kinase FRK (Homo sapiens, UniProt P42685); assay type: functional;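 further: FRK tested as one member of a kinome panel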
Sequence of Tyrosine-protein kinase FRK (P42685 whole entry): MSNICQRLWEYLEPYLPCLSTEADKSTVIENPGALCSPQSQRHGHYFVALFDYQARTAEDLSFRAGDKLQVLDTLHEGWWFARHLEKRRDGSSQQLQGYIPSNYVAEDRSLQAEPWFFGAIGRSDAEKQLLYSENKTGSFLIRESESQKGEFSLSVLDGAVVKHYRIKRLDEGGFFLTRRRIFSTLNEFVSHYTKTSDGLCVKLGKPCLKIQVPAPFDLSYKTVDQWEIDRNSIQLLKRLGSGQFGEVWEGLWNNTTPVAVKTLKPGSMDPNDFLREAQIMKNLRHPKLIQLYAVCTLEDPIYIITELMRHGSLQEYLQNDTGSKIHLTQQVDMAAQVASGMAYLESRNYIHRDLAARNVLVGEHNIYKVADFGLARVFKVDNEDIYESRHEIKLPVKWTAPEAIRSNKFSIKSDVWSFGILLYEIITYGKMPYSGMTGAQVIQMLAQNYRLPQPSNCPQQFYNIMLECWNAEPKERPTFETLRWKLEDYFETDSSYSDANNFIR

Hexokinase HKDC1 = molecular target: T4, Hexokinase HKDC1 (Homo sapiens, UniProt Q2TB90); test: HKDC1 hexokinase inhibitors, dose response, biochemical, W721R variant (AID 504729); assay type: functional
T4 sequence (Q2TB90 whole entry): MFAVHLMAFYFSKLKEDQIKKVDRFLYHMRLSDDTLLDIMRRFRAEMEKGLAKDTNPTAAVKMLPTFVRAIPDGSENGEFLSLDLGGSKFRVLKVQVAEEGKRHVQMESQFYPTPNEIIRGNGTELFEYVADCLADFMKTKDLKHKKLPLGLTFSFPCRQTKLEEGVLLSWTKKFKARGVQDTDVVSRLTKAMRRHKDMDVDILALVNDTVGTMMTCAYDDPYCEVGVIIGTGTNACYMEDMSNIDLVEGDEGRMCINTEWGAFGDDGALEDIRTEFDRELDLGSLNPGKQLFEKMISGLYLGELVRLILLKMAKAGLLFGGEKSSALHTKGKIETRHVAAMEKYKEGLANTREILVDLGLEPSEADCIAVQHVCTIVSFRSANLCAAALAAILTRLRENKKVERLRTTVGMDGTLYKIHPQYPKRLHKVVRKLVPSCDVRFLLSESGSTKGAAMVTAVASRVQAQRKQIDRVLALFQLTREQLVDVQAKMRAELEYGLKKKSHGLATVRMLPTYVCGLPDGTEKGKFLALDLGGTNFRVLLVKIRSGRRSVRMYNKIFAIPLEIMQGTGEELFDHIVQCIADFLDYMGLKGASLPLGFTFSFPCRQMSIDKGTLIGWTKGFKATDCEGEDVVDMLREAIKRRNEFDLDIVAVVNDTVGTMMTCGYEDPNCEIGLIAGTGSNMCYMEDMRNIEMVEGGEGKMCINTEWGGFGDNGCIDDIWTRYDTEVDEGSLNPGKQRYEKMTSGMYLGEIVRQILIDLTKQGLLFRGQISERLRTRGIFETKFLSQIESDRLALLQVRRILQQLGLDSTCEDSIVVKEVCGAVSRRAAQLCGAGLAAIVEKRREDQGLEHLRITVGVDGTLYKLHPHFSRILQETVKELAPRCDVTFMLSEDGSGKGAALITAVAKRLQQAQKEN

Question: Which IC50 [1] does the source give for `Cc1cc(C)c[n+](C2=C([N-]S(=O)(=O)c3cccs3)C(=O)c3ccccc3C2=O)c1` here?
Answer: Its IC50 is > 50 µM (not active).

Question: And the AC50 [2]?
Answer: The AC50 was 2.95 µM (active).

Question: Which IC50 [3] does the source give for `CCCCCCCCCCC[N+](C)(C)CC/C=C1/c2ccccc2Sc2ccc(Cl)cc21` here?
Answer: The IC50 was 4.77 µM (active).

Question: How did the Ki [4] turn out when `CCn1c(-c2nonc2N)nc2cncc(C(=O)N3CCC(N)C3)c21` (configuration not stated) was run?
Answer: The Ki was 31.6 nM (active).

Question: And the Ki [5]?
Answer: The Ki was > 3.98 µM (inactive).

Question: And the Ki [6]?
Answer: The Ki was 100 nM (active).

Question: `Cc1[nH]nc2ccc(-c3cncc(OCC(N)Cc4c[nH]c5ccccc45)c3)cc12` (configuration not stated) was tested. Which Ki [7] did it give?
Answer: Its Ki is > 2 µM (inactive).

Question: And the Ki [8]?
Answer: Its Ki is > 2.51 µM (inactive).

Question: What about the Ki [9] of the same compound?
Answer: Its Ki is > 10 µM (inactive).

Question: What about the Ki (Focal adhesion kinase 1) of the same compound?
Answer: Its Ki is > 1.58 µM (inactive).

Question: What about the Ki [10] of the same compound?
Answer: The Ki was 251 nM (active).

Question: And the Ki [11]?
Answer: The Ki was 6.31 µM (active).

Question: And the Ki [12]?
Answer: Its Ki is > 10 µM (inactive).

Question: What about the Ki [13] of the same compound?
Answer: Its Ki is > 7.94 µM (inactive).

Question: And the Ki [14]?
Answer: The Ki was 50.1 nM (active).

Question: What about the Ki [15] of the same compound?
Answer: Its Ki is > 2.51 µM (inactive).

Question: For `COC(=O)c1ccccc1NC1=C/C(=N\S(=O)(=O)c2cccs2)c2ccccc2C1=O`, which IC50 (Hexokinase HKDC1) is on record?
Answer: The IC50 was 27.5 µM (inactive).
